Assays:
hRPIA = experiment: Western blot of hRPIA protein level after siRNA knockdown or pcDNA3-hRPIA transfection; format: cell-based, human; settings: siRNA knockdown, 48 hours
Hep3B liver cancer cells = experiment: MTT cell viability assay, Hep3B; format: cell-based
From the text: (§1) Further, we used 3-(4,5-dimethylthiazol-2-yl)-2,5-diphenyltetrazolium bromide (MTT) assay to examine whether the knockdown of hRPIA reduces cancer cell viability. […] A similar data was obtained in PLC5 and HepG2 (FIG. 3B and FIG. 3C respectively).
(§2) Further, we used 3-(4,5-dimethylthiazol-2-yl)-2,5-diphenyltetrazolium bromide (MTT) assay to examine whether the over-expression of hRPIA in cancer cells induces cancer cell viability. […] A similar data was obtained in PLC5 and HepG2 (FIG. 7B and FIG. 7C respectively).
(§3) To examine the influence of chemotherapeutic agents on cell growth of liver cancer cell after knocking down of hRPIA, we used specific siRNA to knockdown hRPIA expression and then added 5-fluorouracil (5-FU) by 0, 5, 15, 25 μg/mL into Hep3B, PLC5 and HepG2. Further, we used 3-(4,5-dimethylthiazol-2-yl)-2,5-diphenyltetrazolium bromide (MTT) assay to examine whether the over-expression of hRPIA in cancer cells induces cancer cell viability.

PLC5 liver cancer cells = experiment: MTT cell viability assay, PLC5; format: cell-based; settings: PLC5, 5-FU 0, 5, 15, 25 μg/mL, vs si-negative control transfected cells
From the text: as §1, §2, §3

HepG2 liver cancer cells = experiment: MTT cell viability assay, HepG2; format: cell-based; settings: HepG2, 5-FU 0, 5, 15, 25 μg/mL, vs si-negative control transfected cells
From the text: as §1, §2, §3

SW480 colon cancer cells = experiment: MTT cell viability assay, SW480; format: cell-based; settings: for cell viability by MTT assay after hRPIA knockdown: SW480, 20 nM siRNA
From the text: (§4) Further, we used 3-(4,5-dimethylthiazol-2-yl)-2,5-diphenyltetrazolium bromide (MTT) assay to examine whether the knockdown of hRPIA reduces cancer cell viability. […] A similar data was obtained in SW620 (FIG. 5B).
(§5) Further, we used 3-(4,5-dimethylthiazol-2-yl)-2,5-diphenyltetrazolium bromide (MTT) assay to examine whether the over-expression of hRPIA in cancer cells induces cancer cell viability. […] A similar data was obtained in SW620 (FIG. 9B).
as §3, with “colon” for “liver”, “knock down” for “knockdown”, “SW480” for “Hep3B, PLC5”, “SW620.” for “HepG2.”

SW620 colon cancer cells = experiment: MTT cell viability assay, SW620; format: cell-based
From the text: as §4, §5
as §3, with “colon” for “liver”, “knock down” for “knockdown”, “SW480” for “Hep3B, PLC5”, “SW620.” for “HepG2.”

Hep3B = experiment: Wound healing assay (cell motility), Hep3B; format: cell-based; settings: Hep3B, 0, 18 and 24 hours
Description: (§6) To examine whether the knockdown of hRPIA in cancer cells reduces cell motility, we used specific siRNA to knock down hRPIA expression. To quantify the cancer cell survival rate under the treatment of siRNA against hRPIA which sequence is: […] (SEQ NO. 1) and; […] (SEQ NO. 2) for 0, 18 and 24 hours, we perform wound healing assay to examine the cell motility of hRPIA in Hep3B which were treated with siRNA-hRPIA (cultured in 10% fetal bovine serum with DMEM in 37° C., 5% CO2 for 48 hours) as shown in FIG. 12 respectively. As shown in the figs, the cell motility is lower after adding siRNA.

SW480 = experiment: Wound healing assay (cell motility), SW480; format: cell-based; settings: SW480, 0, 14 and 24 hours
Description: as §6, with “hRPIA in colon cancer cells” for “hRPIA in cancer cells”, “for 0, 14 and 24” for “for 0, 18 and 24”, “hRPIA in SW480 which were” for “hRPIA in Hep3B which were”, “DMEM in 37 °C, 5% CO2” for “DMEM in 37° C., 5% CO2”, “in FIG. 13 respectively. As” for “in FIG. 12 respectively. As”

caspase-3 = experiment: Western blot of caspase-3 after hRPIA siRNA knockdown; format: cell-based
From the text: (§7) To examine whether the knockdown of hRPIA in hepatic cancer cells induces cell apoptosis, we used specific siRNA which sequence is: […] (SEQ NO. 1) and; […] (SEQ NO. 2) to knock down hRPIA expression. Next, we used western blot to examine the protein level of caspase-3 and β-catenin. […] A similar data was obtained in PLC5 and HepG2 (FIG. 14B and FIG. 14C respectively).
(§8) To examine whether the knockdown of hRPIA in colon cancer cells induces cell apoptosis, we used specific siRNA which sequence is: […] (SEQ NO. 1) and; […] ([…]) to knock down hRPIA expression. Next, we used western blot to examine the protein level of caspase-3 and β-catenin.

β-catenin = experiment: Western blot of β-catenin after hRPIA siRNA knockdown; format: cell-based
From the text: as §7, §8

## siRNA-hRPIA: siRNA against hRPIA, sequence UUCACUUCACUCCAUUUGUGUACCC (SEQ NO. 1) and GGGUACACAAAUGGAGUGAAGUGAA (SEQ NO. 2) (listed as RNA, chemistry not given here)
hRPIA; Hep3B liver cancer cells, vs si-negative control
  hRPIA protein level (western blot): lower
hRPIA; HepG2 liver cancer cells
  hRPIA protein level (western blot): lower
hRPIA; PLC5 liver cancer cells, vs si-negative control
  hRPIA protein level (western blot): lower
hRPIA; SW480 colon cancer cells
  hRPIA protein level (western blot): lower
hRPIA; SW620 colon cancer cells
  hRPIA protein level (western blot): lower
Hep3B liver cancer cells; 20 nM siRNA
  cell viability by MTT assay after hRPIA knockdown: significant reduction in cell viability
Hep3B liver cancer cells; 5-FU 0, 5, 15, 25 μg/mL, vs si-negative control transfected cells
  cytotoxicity caused by 5-fluorouracil after hRPIA knockdown (MTT): significantly enhanced the cytotoxicity
PLC5 liver cancer cells
  cytotoxicity caused by 5-fluorouracil after hRPIA knockdown (MTT): significantly enhanced the cytotoxicity
HepG2 liver cancer cells
  cytotoxicity caused by 5-fluorouracil after hRPIA knockdown (MTT): significantly enhanced the cytotoxicity
SW480 colon cancer cells
  cell viability by MTT assay after hRPIA knockdown: significant reduction in cell viability
SW480 colon cancer cells; listed as siRNAs against hRPIA
  cell viability by MTT assay after hRPIA knockdown: significantly reduced cell viability
SW480 colon cancer cells; SW480, 5-FU 0, 5, 15, 25 μg/mL, vs si-negative control transfected cells
  cytotoxicity caused by 5-fluorouracil after hRPIA knockdown (MTT): significantly enhanced the cytotoxicity
SW620 colon cancer cells; SW620, 20 nM siRNA
  cell viability by MTT assay after hRPIA knockdown: significantly reduced cell viability
SW620 colon cancer cells; SW620, 5-FU 0, 5, 15, 25 μg/mL, vs si-negative control transfected cells
  cytotoxicity caused by 5-fluorouracil after hRPIA knockdown (MTT): significantly enhanced the cytotoxicity
Hep3B
  cell motility (wound healing assay): lower
SW480
  cell motility (wound healing assay): lower
caspase-3; Hep3B, 48 hours
  caspase-3 protein level (western blot): increased activity of caspase-3
caspase-3; HepG2
  caspase-3 protein level (western blot): increases caspase-3 expression
caspase-3; PLC5
  caspase-3 protein level (western blot): increases caspase-3 expression
caspase-3; SW480, 48 hours
  caspase-3 protein level (western blot): increased activity of caspase-3
β-catenin; Hep3B
  β-catenin protein level (western blot): slightly reduction
β-catenin; HepG2
  β-catenin protein level (western blot): significant reduction
β-catenin; PLC5
  β-catenin protein level (western blot): slightly reduction
β-catenin; SW480
  β-catenin protein level (western blot): significant reduction

Source: patent US8785412B2, “Method for inducing cancer cell apoptosis or inhibiting the cancer cell migration” (National Tsing Hua University, priority 2011, dated 2014)
